Source: ChEMBL document CHEMBL1150372, “Synthesis, fluorine-18 radiolabeling, and in vitro characterization of 1-iodophenyl-N-methyl-N-fluoroalkyl-3-isoquinoline carboxamide derivatives as potential PET radioligands for imaging peripheral benzodiazepine receptor” (Bioorg Med Chem, 2008)

Tests used:
[1] = molecular target: Translocator protein (Rattus norvegicus, UniProt P16257); test: Displacement of [3H]PK11195 from PBR in rat kidney mitochondrial membrane; type: cell membranes
[2] = Lipophilicity, log P at pH 7.4; type: physicochemical; conditions: buffer
[3] = molecular target: Translocator protein (Homo sapiens, UniProt P30536); test: Binding affinity to human PBR
Translocator protein (Homo sapiens, UniProt P30536), sequence (P30536 whole entry): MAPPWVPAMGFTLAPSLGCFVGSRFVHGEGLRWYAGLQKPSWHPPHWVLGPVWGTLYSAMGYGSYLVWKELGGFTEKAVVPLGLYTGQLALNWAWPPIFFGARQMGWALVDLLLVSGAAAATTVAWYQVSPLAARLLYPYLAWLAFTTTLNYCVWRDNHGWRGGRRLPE

Translocator protein (Rattus norvegicus, UniProt P16257), sequence (P16257 whole entry, looked up): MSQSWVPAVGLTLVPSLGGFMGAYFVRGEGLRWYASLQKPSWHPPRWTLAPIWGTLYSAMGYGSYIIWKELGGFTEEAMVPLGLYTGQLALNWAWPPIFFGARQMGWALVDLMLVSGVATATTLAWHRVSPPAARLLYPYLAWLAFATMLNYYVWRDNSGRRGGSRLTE

Row | Structure (SMILES) | IC50 [1] | other results
1 | CN(CCCF)C(=O)c1cc2ccccc2c(-c2ccccc2I)n1 | 0.28 nM | 
2 | CN(CCCF)C(=O)c1cc2ccccc2c(-c2cccc(I)c2)n1 | 1.4 nM | 
3 | CN(CCCF)C(=O)c1cc2ccccc2c(-c2ccc(I)cc2)n1 | 66.5 nM | 
4 | CN(CCF)C(=O)c1cc2ccccc2c(-c2ccccc2I)n1 | 445 nM | 
5 | CN(CCC[18F])C(=O)c1cc2ccccc2c(-c2ccccc2I)n1 |  | logD [2]: 3
6 | CCCCCCN(CCCCCC)C(=O)Cc1c(-c2ccc(F)cc2)[nH]c2ccccc12 |  | Kd [3]: 4 nM
7 | CN1C(=O)CN=C(c2ccc(Cl)cc2)c2cc(Cl)ccc21 [RO-54864] |  | Kd [3]: 6 nM
